# Data published in patent publication US20240067679A1, “SARS-COV-2 PROTEIN-DERIVED PEPTIDE AND VACCINE CONTAINING SAME” (Onco Therapy Science, Inc., priority 2021, published 2024).
# Where two headings read alike, the source gives them in different places.
# B1: Peptide 12-responsive TCR-2 (TCR)
# alpha TRAV24 TRAJ29 CDR3: CAFLSGNTPLVF
# beta TRBV27 TRBJ1-6 CDR3: CASSPAAYSPLHF
# B2: Peptide 12-responsive TCR-1 (TCR)
# alpha TRAV1-2 TRAJ20 CDR3: CAVRDPRNDYKLSF
# beta TRBV27 TRBJ1-1 CDR3: CATQVNTEAFF
# B3: Peptide 10-responsive TCR (TCR)
# alpha TRAV8-6 TRAJ36 CDR3: CAITGANNLFF
# beta TRBV20-1 TRBJ1-5 CDR3: CSAEDRGSNSNQPQHF
# Columns and labels:
# [1] = tested on: HLA-A*24:02-expressing target cells (TISI cells); type: cell-based, human
# [2] = tested on: HLA-A*02:01-expressing target cells (T2 cells); type: cell-based, human
# [3] = tested on: HLA-A*02:06-expressing target cells (HEV0011 cells); type: cell-based, human
# [4] = tested on: HLA-A*02:01-expressing target cells (T2 cells); type: cell-based, human; remark: listed apart in the source
# [5] = tested on: HLA-A*02:06-expressing target cells (HEV0011 cells); type: cell-based, human; remark: listed apart in the source
# [6] = tested on: HLA-A*24:02-expressing target cells (TISI cells); type: cell-based, human; remark: listed apart in the source
# [7] = tested on: CD8-positive T cells
# [8] = target: T1, SARS-CoV-2 ORF1ab peptide on HLA-A*02:01 (human); assay: cytokine release
# T1 peptide: NVLAWLYAAV
# [9] = target: T2, SARS-CoV-2 ORF1ab peptide on HLA-A*02:01 (human); assay: cytokine release
# T2 peptide: TLMIERFVSL
# [10] = cells induced from HLA-A*24:02-positive PBMCs, peptide-pulsed TISI cells vs TISI cells not pulsed
# [11] = cells induced from HLA-A*02:01-positive PBMCs, peptide-pulsed T2 cells vs T2 cells not pulsed
# [12] = HLA-A*02:06-restricted CTL lines, peptide-pulsed HEV0011 cells
# [13] = HLA-A*02:01-restricted CTL lines, peptide-pulsed T2 cells
# [14] = cells induced from HLA-A*02:06-positive PBMCs, peptide-pulsed HEV0011 cells vs HEV0011 cells not pulsed
molecule,measurement,setting,value
"FGMSRIGMEV (a peptide derived from N polyprotein of SARS-CoV-2) [Peptide 9, SARS-CoV-2 N protein-derived 10 mer peptide, position 315]",Peptide-specific IFN-γ production (ELISPOT),[1]; [10],no peptide-specific IFN-γ production was observed
same,Peptide-specific IFN-γ production (ELISPOT),[2]; [11],observed
"FMIDVQQWGF (a peptide derived from ORF1ab polyprotein of SARS-CoV-2) [Peptide 15, SARS-CoV-2 ORF1ab-derived 10 mer peptide, position 6165]",IFN-γ production by CTL lines (ELISA),[3]; [12],observed
same,IFN-γ production by CTL lines (ELISA),[4]; [13],observed
same,Peptide-specific IFN-γ production (ELISPOT),[1]; [10],no peptide-specific IFN-γ production was observed
same,Peptide-specific IFN-γ production (ELISPOT),[2]; [11],observed
same,Peptide-specific IFN-γ production (ELISPOT),[5]; [14],observed
FTYASALWEI [Peptide 7],IFN-γ production by CTL lines (ELISA),[3],observed
same,IFN-γ production by CTL lines (ELISA),[4],observed
same,Peptide-specific IFN-γ production (ELISPOT),[1],no peptide-specific IFN-γ production was observed
same,Peptide-specific IFN-γ production (ELISPOT),[2],observed
same,Peptide-specific IFN-γ production (ELISPOT),[5],observed
FVLWAHGFEL [Peptide 3],IFN-γ production by CTL lines (ELISA),[6],observed
same,IFN-γ production by CTL lines (ELISA),[3],observed
same,Detection of tetramer-positive CD8-positive T cells recognizing the peptide,[7],detected
same,IFN-γ production by CTL lines (ELISA),[4],observed
same,Peptide-specific IFN-γ production (ELISPOT),[1],observed
same,Peptide-specific IFN-γ production (ELISPOT),[2],observed
same,Peptide-specific IFN-γ production (ELISPOT),[5],observed
LMYKGLPWNV [Peptide 2],IFN-γ production by CTL lines (ELISA),[4],observed
same,Peptide-specific IFN-γ production (ELISPOT),[1],no peptide-specific IFN-γ production was observed
same,Peptide-specific IFN-γ production (ELISPOT),[2],observed
same,Peptide-specific IFN-γ production (ELISPOT),[5],not observed
"MMGFKMNYQV (a peptide derived from ORF1ab polyprotein of SARS-CoV-2) [Peptide 5, SARS-CoV-2 ORF1ab-derived 10 mer peptide, position 5982]",Peptide-specific IFN-γ production (ELISPOT),[1]; [10],no peptide-specific IFN-γ production was observed
same,Peptide-specific IFN-γ production (ELISPOT),[2]; [11],observed
"MMILSDDAV (a peptide derived from ORF1ab polyprotein of SARS-CoV-2) [Peptide 8, SARS-CoV-2 ORF1ab-derived 9 mer peptide, position 5147]",Peptide-specific IFN-γ production (ELISPOT),[2]; [11],not observed
"NVLAWLYAAV (a peptide derived from ORF1ab polyprotein of SARS-CoV-2) [Peptide 12, SARS-CoV-2 ORF1ab-derived 10 mer peptide, position 3466]",IFN-γ production by CTL lines (ELISA),[3]; [12],observed
same,IFN-γ production by CTL lines (ELISA),[4]; [13],observed
same,Peptide-specific IFN-γ production (ELISPOT),[1]; [10],no peptide-specific IFN-γ production was observed
same,Peptide-specific IFN-γ production (ELISPOT),[2]; [11],observed
same,Peptide-specific IFN-γ production (ELISPOT),[5]; [14],observed
"SLFDMSKFPL (a peptide derived from ORF1ab polyprotein of SARS-CoV-2) [Peptide 1, SARS-CoV-2 ORF1ab-derived 10 mer peptide, position 7041]",Peptide-specific IFN-γ production (ELISPOT),[1]; [10],no peptide-specific IFN-γ production was observed
same,Peptide-specific IFN-γ production (ELISPOT),[2]; [11],observed
"TLEPEYENSV [Peptide 13, SARS-CoV-2 ORF1ab-derived 10 mer peptide, position 5740]",Peptide-specific IFN-γ production (ELISPOT),[1]; [10],no peptide-specific IFN-γ production was observed
same,Peptide-specific IFN-γ production (ELISPOT),[2]; [11],observed
"TLMIERFVSL (a peptide derived from ORF1ab polyprotein of SARS-CoV-2) [Peptide 10, SARS-CoV-2 ORF1ab-derived 10 mer peptide, position 5245]",IFN-γ production by CTL lines (ELISA),[3]; [12],observed
same,IFN-γ production by CTL lines (ELISA),[4]; [13],observed
same,Peptide-specific IFN-γ production (ELISPOT),[1]; [10],no peptide-specific IFN-γ production was observed
same,Peptide-specific IFN-γ production (ELISPOT),[2]; [11],observed
same,Peptide-specific IFN-γ production (ELISPOT),[5]; [14],observed
"YMPASWVMRI (a peptide derived from ORF1ab polyprotein of SARS-CoV-2) [Peptide 4, SARS-CoV-2 ORF1ab-derived 10 mer peptide, position 3654]",IFN-γ production by CTL lines (ELISA),[3]; [12],observed
same,IFN-γ production by CTL lines (ELISA),[4]; [13],observed
same,Peptide-specific IFN-γ production (ELISPOT),[1]; [10],no peptide-specific IFN-γ production was observed
same,Peptide-specific IFN-γ production (ELISPOT),[2]; [11],observed
same,Peptide-specific IFN-γ production (ELISPOT),[5]; [14],observed
"YSFLPGVYSV (a peptide derived from ORF1ab polyprotein of SARS-CoV-2) [Peptide 14, SARS-CoV-2 ORF1ab-derived 10 mer peptide, position 3098]",Peptide-specific IFN-γ production (ELISPOT),[1]; [10],no peptide-specific IFN-γ production was observed
same,Peptide-specific IFN-γ production (ELISPOT),[2]; [11],observed
"YVYNPFMIDV (a peptide derived from ORF1ab polyprotein of SARS-CoV-2) [Peptide 11, SARS-CoV-2 ORF1ab-derived 10 mer peptide, position 6160]",IFN-γ production by CTL lines (ELISA),"[6]; HLA-A*24:02-restricted CTL lines, peptide-pulsed TISI cells",observed
same,IFN-γ production by CTL lines (ELISA),[3]; [12],observed
same,IFN-γ production by CTL lines (ELISA),[4]; [13],observed
same,Peptide-specific IFN-γ production (ELISPOT),[1]; [10],observed
same,Peptide-specific IFN-γ production (ELISPOT),[2]; [11],observed
same,Peptide-specific IFN-γ production (ELISPOT),[5]; [14],observed
B1,binding result,[8],recognises
B2,binding result,[8],recognises
B3,binding result,[9],recognises
